This passage reports IC50 results from patent publication US12384789B2, “Compounds for treating Huntington's disease” (PTC Therapeutics, Inc., priority 2017, dated 2025).

This test concerns Endogenous Huntingtin Protein. Briefly: Endogenous Huntingtin Protein Assay (Meso Scale Discovery ELISA-based electrochemiluminescence). In kind it is cell-based. Conditions: MSD electrochemiluminescence, Table 1. The method, boiled down: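 MSD electrochemiluminescence sandwich ELISA: MW1 (expanded polyQ) or MAB2166 capture antibody at 1 μg/mL, samples incubated overnight at 4° C. Detection with rabbit monoclonal #5656S then SULFO-TAG anti-rabbit antibody, each 0.25 μg/mL for 1 h at room temperature.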
(In general: An ELISA detects its analyte on a solid surface through an enzyme-linked reagent.)
For `Cn1cc2cc(-c3cc4c(F)cc(C5=CCNCC5)cc4nn3)cc(F)c2n1` [Compound 134, 5-fluoro-3-(7-fluoro-2-methyl-2H-indazol-5-yl)-7-(1,2,3,6-tetrahydropyridin-4-yl)cinnoline], the IC50 (as a rule, the point on the concentration scale where inhibition reaches its midpoint) is at most 0.1 µM.
The result for `Cc1cn2cc(-c3cc(F)c4nc(C5CCNCC5)nnc4c3)cc(C(F)(F)F)c2n1` [Compound 61, 5-fluoro-7-[2-methyl-8-(trifluoromethyl)imidazo[1,2-a]pyridin-6-yl]-3-(piperidin-4-yl)-1,2,4-benzotriazine] reads 0.5 to 1 µM; that for `Cn1cc2cc(-c3cc(F)c4cc(C5CCNCC5)nnc4c3)ccc2n1` [Compound 95, 5-fluoro-7-(2-methyl-2H-indazol-5-yl)-3-(piperidin-4-yl)cinnoline], at most 0.1 µM; that for `Cc1cn2cc(-c3cc4c(F)cc(C5=CCNCC5)cc4nn3)cc(C)c2n1` [Compound 156, 3-(2,8-dimethylimidazo[1,2-a]pyridin-6-yl)-5-fluoro-7-(1,2,3,6-tetrahydropyridin-4-yl)cinnoline], at most 0.1 µM.
For the compound `Cc1cn2cc(-c3cc4c(F)cc(C5CCNCC5)cc4nn3)cc(F)c2n1` [Compound 128, 5-fluoro-3-(8-fluoro-2-methylimidazo[1,2-a]pyridin-6-yl)-7-(piperidin-4-yl)cinnoline], the IC50 was at most 0.1 µM.
`CCN1CCC(c2ccc3cc(-c4ccc5nn(C)cc5c4)ccc3n2)CC1` [Compound 9, 2-(1-ethylpiperidin-4-yl)-6-(2-methyl-2H-indazol-5-yl)quinoline] displayed an IC50 of 1 to 3 µM.
The result for `CCN1CCC(c2cc3c(F)cc(-c4ccc5nc(C)cn5n4)cc3nn2)CC1` [Compound 100, 3-(1-ethylpiperidin-4-yl)-5-fluoro-7-(2-methylimidazo[1,2-b]pyridazin-6-yl)cinnoline] reads at most 0.1 µM.
Compound `Cc1cc(-c2ccc3cc(C4CCNCC4)ncc3c2)cc2cn(C)nc12` [Compound 30, 7-(2,7-dimethyl-2H-indazol-5-yl)-3-(piperidin-4-yl)isoquinoline] had an IC50 of 0.1 to 0.5 µM.
The result for `Cc1cn2nc(-c3cc(F)c4cc(C5CCNCC5)nnc4c3)ccc2n1` [Compound 99, 5-fluoro-7-(2-methylimidazo[1,2-b]pyridazin-6-yl)-3-(piperidin-4-yl)cinnoline] reads at most 0.1 µM; that for `Cc1cn2nc(-c3cc(F)c4cc(C5CCN(C)CC5)nnc4c3)cc(C#N)c2n1` [Compound 176, 6-[5-fluoro-3-(1-methylpiperidin-4-yl)cinnolin-7-yl]-2-methylimidazo[1,2-b]pyridazine-8-carbonitrile], at most 0.1 µM; that for `Cc1cn2nc(-c3cc(F)c4cc(N5CC6(CCNC6)C5)nnc4c3)cc(C)c2n1` [Compound 217, 3-(2,6-diazaspiro[3.4]octan-2-yl)-7-(2,8-dimethylimidazo[1,2-b]pyridazin-6-yl)-5-fluorocinnoline], at most 0.1 µM.
The compound `Cc1cn2cc(-c3cc(F)c4cc(C5CCNCC5)nnc4c3)cc(F)c2n1` [Compound 92, 5-fluoro-7-(8-fluoro-2-methylimidazo[1,2-a]pyridin-6-yl)-3-(piperidin-4-yl)cinnoline] displayed an IC50 of at most 0.1 µM.
Next, `CCN1CCC(c2nnc3cc(-c4cc(C)c5nc(C)cn5n4)cc(F)c3n2)CC1` [Compound 70, 7-(2,8-dimethylimidazo[1,2-b]pyridazin-6-yl)-3-(1-ethylpiperidin-4-yl)-5-fluoro-1,2,4-benzotriazine]: at most 0.1 µM.
Compound `CCN1CCC(c2cc3c(F)cc(-c4cc(CCO)c5nc(C)cn5n4)cc3nn2)CC1` [Compound 206] had an IC50 of at most 0.1 µM.
Next, `Cc1cn2nc(-c3cc(F)c4cc(C5CCN(CCO)CC5)nnc4c3)cc(C)c2n1` [Compound 75, 2-{4-[7-(2,8-dimethylimidazo[1,2-b]pyridazin-6-yl)-5-fluorocinnolin-3-yl]piperidin-1-yl}ethanol]: at most 0.1 µM; `CN(c1ccc2cc(-c3ccc4nn(C)cc4c3)ccc2n1)C1CC(C)(C)NC(C)(C)C1` [Compound 12, N-methyl-6-(2-methyl-2H-indazol-5-yl)-N-(2,2,6,6-tetramethylpiperidin-4-yl)quinolin-2-amine]: 0.5 to 1 µM; `COc1cc(-c2cc(F)c3nc(C4CCNCC4)ccc3c2)cc2cn(C)nc12` [Compound 49, 8-fluoro-6-(7-methoxy-2-methyl-2H-indazol-5-yl)-2-(piperidin-4-yl)quinoline]: at most 0.1 µM.
With `Cc1cn2cc(-c3cc(F)c4cc(C5CCNCC5)nnc4c3)nc2c(C)n1` [Compound 116, 7-(6,8-dimethylimidazo[1,2-a]pyrazin-2-yl)-5-fluoro-3-(piperidin-4-yl)cinnoline], the IC50 is 0.1 to 0.5 µM.
On to `Cc1cn2cc(-c3nnc4cc(C5CCNCC5)cc(F)c4n3)cc(C)c2n1` [Compound 40, 3-(2,8-dimethylimidazo[1,2-a]pyridin-6-yl)-5-fluoro-7-(piperidin-4-yl)-1,2,4-benzotriazine], for which the half-maximal inhibitory concentration (IC50) was 0.1 to 0.5 µM.
Compound `COCCNc1cc(-c2cc(F)c3nc(C4CCNCC4)ccc3c2)nn2cc(C)nc12` [Compound 54, 6-[8-fluoro-2-(piperidin-4-yl)quinolin-6-yl]-N-(2-methoxyethyl)-2-methylimidazo[1,2-b]pyridazin-8-amine] had an IC50 of 0.1 to 0.5 µM.
The result for `CCN1[C@H](C)CC(c2cc3c(F)cc(-c4cc(C)c5nc(C)cn5n4)cc3nn2)C[C@@H]1C` (stereo partly drawn) [Compound 168, 7-(2,8-dimethylimidazo[1,2-b]pyridazin-6-yl)-3-[(2R,6S)-1-ethyl-2,6-dimethylpiperidin-4-yl]-5-fluorocinnoline] reads 0.1 to 0.5 µM.
On to `Cc1cn2nc(-c3cc(F)c4nc(C5CCNCC5)ccc4c3)cc(C)c2n1` [Compound 45, 6-(2,8-dimethylimidazo[1,2-b]pyridazin-6-yl)-8-fluoro-2-(piperidin-4-yl)quinoline], for which the IC50 was at most 0.1 µM.
The result for `COc1cc(-c2cc(F)c3nc(C4CCNCC4)ccc3c2)nn2cc(C)nc12` [Compound 51, 8-fluoro-6-(8-methoxy-2-methylimidazo[1,2-b]pyridazin-6-yl)-2-(piperidin-4-yl)quinoline] reads at most 0.1 µM; that for `Cn1cc2cc(-c3nnc4cc(C5CCNCC5)ccc4n3)cc(C#N)c2n1` [Compound 26, 2-methyl-5-[7-(piperidin-4-yl)-1,2,4-benzotriazin-3-yl]-2H-indazole-7-carbonitrile], at most 0.1 µM; that for `CCN1CCC(c2cc3c(F)cc(-c4cc(C)c5nc(C)cn5n4)cc3nn2)CC1` [Compound 76, 7-(2,8-dimethylimidazo[1,2-b]pyridazin-6-yl)-3-(1-ethylpiperidin-4-yl)-5-fluorocinnoline], at most 0.1 µM.
In the case of `Cc1cn2nc(-c3cc(F)c4cc(C5CCCN(CCF)CC5)nnc4c3)cc(C)c2n1` (stereo not shown) [Compound 199, 7-(2,8-dimethylimidazo[1,2-b]pyridazin-6-yl)-5-fluoro-3-[1-(2-fluoroethyl)azepan-4-yl]cinnoline], the IC50 was at most 0.1 µM.
The result for `Cn1cc2cc(-c3cc(F)c4cc(C5CCNCC5)nnc4c3)cc(F)c2n1` [Compound 96, 5-fluoro-7-(7-fluoro-2-methyl-2H-indazol-5-yl)-3-(piperidin-4-yl)cinnoline] reads at most 0.1 µM; that for `Cc1cn2nc(-c3cc(F)c4cc(N5C[C@@H]6C[C@H]5CN6C)nnc4c3)cc(C)c2n1` [Compound 215, 7-(2,8-dimethylimidazo[1,2-b]pyridazin-6-yl)-5-fluoro-3-[(1S,4S)-5-methyl-2,5-diazabicyclo[2.2.1]heptan-2-yl]cinnoline], at most 0.1 µM.
